Read-outs that look alike come from different tables or passages of the source. Blank lines part the entries; values can stand above or below the molecule they belong to.
Legend:
[1] = parameters: method as in PMID 17551814; details: dose range of 500-2000 mg/Kg in mice; cited from earlier work
HK2 [2] = biological target: T1, HK2 (Homo sapiens, UniProt P52789); assay: Microscale thermophoresis (MST) assay; type: binding; details: labelled HK2 20 nM, 25 °C
T1 construct: made in house; host or cells: E. coli BL21 (DE3)
T1 sequence (P52789 1-917): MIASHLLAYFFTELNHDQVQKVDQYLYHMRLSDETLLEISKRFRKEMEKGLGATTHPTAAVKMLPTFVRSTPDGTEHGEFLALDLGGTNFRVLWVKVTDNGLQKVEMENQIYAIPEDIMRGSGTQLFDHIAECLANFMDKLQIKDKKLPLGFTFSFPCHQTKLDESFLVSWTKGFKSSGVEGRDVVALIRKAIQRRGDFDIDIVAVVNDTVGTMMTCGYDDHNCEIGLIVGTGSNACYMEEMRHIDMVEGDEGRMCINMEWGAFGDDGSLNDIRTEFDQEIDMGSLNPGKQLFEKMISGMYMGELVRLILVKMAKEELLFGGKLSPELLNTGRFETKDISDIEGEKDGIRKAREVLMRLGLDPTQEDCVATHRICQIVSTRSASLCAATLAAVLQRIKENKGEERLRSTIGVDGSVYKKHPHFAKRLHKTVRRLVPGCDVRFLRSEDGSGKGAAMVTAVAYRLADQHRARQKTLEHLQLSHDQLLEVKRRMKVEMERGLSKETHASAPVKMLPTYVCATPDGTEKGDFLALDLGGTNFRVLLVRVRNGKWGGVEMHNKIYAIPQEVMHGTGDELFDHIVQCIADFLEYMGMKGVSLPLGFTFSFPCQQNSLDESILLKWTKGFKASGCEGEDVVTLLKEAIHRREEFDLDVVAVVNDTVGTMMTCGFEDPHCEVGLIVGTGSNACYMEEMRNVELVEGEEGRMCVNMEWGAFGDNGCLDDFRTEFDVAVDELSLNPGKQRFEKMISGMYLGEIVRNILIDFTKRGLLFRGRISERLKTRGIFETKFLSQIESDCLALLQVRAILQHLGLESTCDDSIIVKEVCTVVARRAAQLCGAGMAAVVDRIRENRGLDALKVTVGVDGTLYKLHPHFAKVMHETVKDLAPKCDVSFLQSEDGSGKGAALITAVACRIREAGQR
Experimental: MST was used to analyze the binding affinity between potential ligands and receptors. The purified HK2 was labeled with the Monolith NT™ Protein Labeling Kit RED (Cat # L001) according to the supplied labeling protocol. Labelled HK2 was kept constant at 20 nM, and all tested samples were 1:1 diluted in a 20 mM HEPES (pH 7.4) and 0.05 (v/v) % Tween-20. After 10 min incubation at room temperature, samples were loaded into Monolith™ standard-treated capillaries. And the thermophoresis was measured at 25 °C after 30 min incubation on a Monolith NT.115 instrument (Germany). Furthermore, laser power was set to 20% or 40% using 30 sec on-time. The LED power was set to 100%. The dissociation constant Kd values were fitted by using the NTAnalysis software.

HK2 [3] = biological target: T1, HK2; assay: In vitro enzyme inhibition assay (G6P-DH coupled, NADH 340 nm); type: biochemical
Experimental: Then 85 μL assay mix containing 100 mM Tris HCl pH 8.0, 5 mM MgCl2, 200 mM Glucose, 0.8 mM ATP, 1 mM NAD^+, 0.25 Units of G6P-DH, was added.

[4] = Cytotoxicity test (CCK-8); type: cell-based
Experimental: (§1) Met was used as a positive control. All experiments were performed in triplicate.

MCF-7 = assay: Cytotoxicity test (CCK-8); type: cell-based; details: Homo sapiens, MCF7; MCF-7, 48 h
Experimental: as §1

SMMC-7721 = assay: Cytotoxicity test (CCK-8); type: cell-based; details: Homo sapiens, SMMC-7721, 48 h
Experimental: as §1

SW480 = assay: Cytotoxicity test (CCK-8); type: cell-based; details: Homo sapiens, SW480, 48 h
Experimental: as §1

HCT116 = assay: Cytotoxicity test (CCK-8); type: cell-based; details: Homo sapiens, HCT-116; HCT116, 48 h
Experimental: as §1

Lovo = assay: Cytotoxicity test (CCK-8); type: cell-based; details: Homo sapiens, 48 h
Experimental: as §1

[5] = recombinant HK2, n.i means no enzyme inhibition
[6] = recombinant HK2, n.i means no enzyme inhibition, read-out: Enzyme IC50

- Kd (HK2 [2]): No binding affinity
SMILES: O=CC[C@@H](O)[C@H](O)[C@H](O)CO [2-DG, 2-Deoxyglucose]
- therapeutic activity as a single agent [1]: does not have significant therapeutic activity

- IC50 (HK2 [3]; [6]): > 1000 µM
SMILES: N[C@H]1C(O)O[C@H](CO)[C@@H](O)[C@@H]1O (stereo partly drawn) [D-Glucosamine]

- Kd (HK2 [2]; read-out: Kd): 3930 ± 282 µM
SMILES: CN(C)C(=N)N=C(N)N [Metformin]
- IC50 at 48 h ([4]; African green monkey, Vero normal cells): > 1000 µM
- IC50 at 48 h ([4]; human, LO2 normal cells): > 1000 µM
- IC50 (MCF-7): > 1000 µM
- IC50 (SMMC-7721): > 1000 µM
- IC50 (SW480): > 1000 µM
- IC50 (HCT116): > 1000 µM
- IC50 (Lovo): > 1000 µM

- Enzyme IC50 (HK2 [3]; [5]): n.i
SMILES: NCCC(O)(P(=O)(O)O)P(=O)(O)O [Pamidronate]

- IC50 (HK2 [3]; [6]): > 1000 µM
SMILES: O=C1O[C@H]([C@@H](O)CO)C(O)=C1O [Vitamin C]

Second part, the molecule before the results:

SMILES: O=C(O)C(=O)CBr [3-BrPA, 3-Bromopyruvate]
- Kd (HK2 [2]; read-out: Kd): 742 ± 96.8 µM

SMILES: [H]/N=C(\N/C(=N/[H])NCCCCCCNC(=N)NC(=N)Nc1ccc(Cl)cc1)Nc1ccc(Cl)cc1 [Chlorhexidine]
- Enzyme IC50 (HK2 [3]; [5]): n.i

SMILES: O=C(CO)[C@@H](O)[C@H](O)[C@H](O)CO [D-Fructose]
- Enzyme IC50 (HK2 [3]; [5]): n.i ^C

SMILES: CNC[C@H](O)[C@@H](O)[C@H](O)[C@H](O)CO [Meglumine]
- IC50 (HK2 [3]): > 1000 µM

SMILES: O=C(O)c1cc(/N=N/c2ccc(S(=O)(=O)Nc3ccccn3)cc2)ccc1O [Sulfasalazine]
- IC50 (HK2 [3]; [6]): > 1000 µM
